Test results taken from patent US20260207614A1, “IRAK4 DEGRADERS AND USES THEREOF” (Kymera Therapeutics, Inc., priority 2022, published 2026).

Experiments:
[1] = Diastereomer interconversion; type: physicochemical; conditions: in vitro and in vivo
Description: (S,R,R)-Compound A and (R,R,R)-Compound A, which are designated as Compound B and Compound C, respectively. In some embodiments, Compound A is Compound B. In some embodiments, Compound A is Compound C. In some embodiments, Compound A is a mixture of Compound B and Compound C. […] In some embodiments, Compound A, Compound B, Compound C, or a pharmaceutically acceptable salt thereof, is amorphous. In some embodiments, Compound A, Compound B, Compound C, or a pharmaceutically acceptable salt thereof, is in crystal form.

[2] = tested on: patients with hidradenitis suppurativa (HS); conditions: Phase 2 and 3, week 4; cited from earlier work
[3] = tested on: patients with atopic dermatitis (AD); conditions: Phase 3, week 4; cited from earlier work

Compound: Cn1c(=O)n([C@H]2CCC(=O)NC2=O)c2cccc(C#CCOC3CCN(C[C@H]4CC[C@H](n5cc(NC(=O)c6cnn7ccc(N8C[C@H]9C[C@@H]8CO9)nc67)c(C(F)F)n5)CC4)CC3)c21 [Compound B, 5-((1R,4R)-2-oxa-5-azabicyclo[2.2.1]heptan-5-yl)-N-(3-(difluoromethyl)-1-((1r,4R)-4-((4-((3-(1-((S)-2,6-dioxopiperidin-3-yl)-3-methyl-2-oxo-2,3-dihydro-1H-benzo[d]imidazol-4-yl)prop-2-yn-1-yl)oxy)piperidin-1-yl)methyl)cyclohexyl)-1H-pyrazol-4-yl)pyrazolo[1,5-a]pyrimidine-3-carboxamide]
- interconversion of diastereomers [1]: interconvert rapidly

Compound: Cn1c(=O)n([C@@H]2CCC(=O)NC2=O)c2cccc(C#CCOC3CCN(C[C@H]4CC[C@H](n5cc(NC(=O)c6cnn7ccc(N8C[C@H]9C[C@@H]8CO9)nc67)c(C(F)F)n5)CC4)CC3)c21 [Compound C, 5-((1R,4R)-2-oxa-5-azabicyclo[2.2.1]heptan-5-yl)-N-(3-(difluoromethyl)-1-((1r,4R)-4-((4-((3-(1-((R)-2,6-dioxopiperidin-3-yl)-3-methyl-2-oxo-2,3-dihydro-1H-benzo[d]imidazol-4-yl)prop-2-yn-1-yl)oxy)piperidin-1-yl)methyl)cyclohexyl)-1H-pyrazol-4-yl)pyrazolo[1,5-a]pyrimidine-3-carboxamide]
- interconversion of diastereomers [1]: interconvert rapidly

Compound: Adalimumab
- Responders: AN Count 0/1/2 [2]: 28-47%^2, 3
- Responders: HiSCR50 [2]: 29-51%^3, 4
- Responders: HiSCR75 [2]: 20%^4
- Responders: Pain NRS30 [2]: 39-58%^2, 3, 5
- ΔAN Count [2]: −31%^1

Compound: Dupilumab
- Responders: Peak Pruritis NRS, Past Week/Past 24 Hours, first value [3]: 23%
- Responders: Peak Pruritis NRS, Past Week/Past 24 Hours, second value [3]: 40%
- ΔEASI [3]: −52%^1
- ΔPeak Pruritis NRS: Past Week/Past 24 Hours [3]: −34%^1
